What was measured:
HLA-B*57:01 [1] = molecular target: T1, HLA-B*57:01 (Homo sapiens, UniProt P01889, D201E/D98Y/E176V/E187L/E204Q/E69M/E70A/G107R/I90N/K202T/L105A/L119I/N104I/N87E/Q89R/Q94S/R106L/R155S/R180L/R86G/S101N/S121V/S35A/S48A/T118I/V36M/Y140S/Y91M); test: LC-MRM-MS quantitation of HLA ligands and co-purified abacavir from abacavir treated C1R.B*57:01 cells; type: cell-based; settings: for Category of abacavir impact on peptide abundance in the immunopeptidome: C1R.B*57:01, 35 µM abacavir 0-16 h or constant, linear regression of normalised abundance, three replicates; for Abacavir dependence: LC-MRM-MS detection, classification of the peptide based on abacavir dependency; for Linear regression slope: linear regression of LC-MRM-MS peptide abundance over abacavir treatment time
HLA-B*57:01 [2] = molecular target: T1, HLA-B*57:01; parameters: method as in Illing et al., Nature 2012; settings: ref Illing et al., Nature 2012, cited from earlier work; for HLA-B*57:01 previous observation by LC-MS/MS, Abacavir treated: abacavir treated cells; for HLA-B*57:01 previous observation by LC-MS/MS, Untreated: untreated cells

Row | Sequence | Category of abacavir impact on peptide abundance in the immunopeptidome (HLA-B*57:01 [1]) | Abacavir dependence (HLA-B*57:01 [1]) | Linear regression slope (HLA-B*57:01 [1]) | HLA-B*57:01 previous observation by LC-MS/MS, Abacavir treated (HLA-B*57:01 [2]) | HLA-B*57:01 previous observation by LC-MS/MS, Untreated (HLA-B*57:01 [2])
1 | YTDNLVRVW [HLA-B*57:01 ligand derived from RACK1] | minimally impacted by abacavir | Minimal | -0.0088 | + (+ (< 5% FDR)) | + (+ (< 5% FDR))
2 | KVVDVVRNL [HLA-B*57:01 ligand derived from MX1] | abacavir inhibited (abacavir inhibited (slope < −0.02)) | Inhibited | -0.0432 | # (# (> 5% FDR)) | + (+ (< 5% FDR))
3 | TTWKPLNPNSW | – | Minimal | 0.0009 | + (+ (< 5% FDR)) | + (+ (< 5% FDR))
4 | IYDKFIAQL | – | – | -0.0106 | + (+ (< 5% FDR)) | + (+ (< 5% FDR))
5 | KTFIGTVRV | – | Dependent | 0.0503 | + (+ (< 5% FDR)) | –
6 | KTFTTQETI [HLA-B*57:01 ligand] | abacavir facilitated (abacavir facilitated (slope > 0.02, abundance > 0 at t = 0 in at least two of three replicates)) | – | – | + (+ (< 5% FDR)) | + (+ (< 5% FDR))
7 | IFDSKVTEI | – | – | -0.0096 | + (+ (< 5% FDR)) | + (+ (< 5% FDR))
8 | FVKKLEHSW | – | Minimal | 0.0023 | + (+ (< 5% FDR)) | + (+ (< 5% FDR))
9 | LTTKLTNTNI [non-labelled HLA-B*57:01 ligand] | Dependent | Dependent | 0.0544 | + (+ (< 5% FDR)) | –
10 | RVAQLEQVYI | – | Dependent | 0.0208 | + (+ (< 5% FDR)) | –
11 | KTIKLWNTL [HLA-B*57:01 ligand derived from RACK1] | abacavir facilitated (abacavir facilitated (slope > 0.02, abundance > 0 at t = 0 in at least two of three replicates)) | Facilitated | 0.0224 | + (+ (< 5% FDR)) | + (+ (< 5% FDR))
12 | ILDPHVVLL | – | – | 0.0062 | + (+ (< 5% FDR)) | + (+ (< 5% FDR))
13 | SSAEVKVTI | – | Dependent | 0.0466 | + (+ (< 5% FDR)) | –
14 | LSKPNPPSL [HLA-B*57:01 ligand] | Minimal | Minimal | -0.0172 | + (+ (< 5% FDR)) | + (+ (< 5% FDR))
15 | ITAGAHRLW | – | Minimal | 0.0136 | + (+ (< 5% FDR)) | + (+ (< 5% FDR))
16 | VSAKEKYYVW | – | Minimal | -0.0125 | + (+ (< 5% FDR)) | + (+ (< 5% FDR))
17 | ASAGNLKPVW | – | Minimal | 0.0136 | + (+ (< 5% FDR)) | + (+ (< 5% FDR))
18 | LTSELITHI [HLA-B*57:01 ligand derived from MX1] | abacavir dependent (abacavir dependent (slope > 0.02, abundance = 0 at t = 0 in at least two of three replicates)) | Dependent | 0.0325 | + (+ (< 5% FDR)) | –
19 | KSYELPDGQVI | – | Facilitated | 0.0297 | + (+ (< 5% FDR)) | # (# (> 5% FDR))
20 | STLHLVLRL | – | Dependent | 0.0280 | + (+ (< 5% FDR)) | + (+ (< 5% FDR))
21 | ISIHVGQAGVQI | – | Dependent | 0.0259 | + (+ (< 5% FDR)) | –

Row | Sequence | Category of abacavir impact on peptide abundance in the immunopeptidome (HLA-B*57:01 [1]) | Abacavir dependence (HLA-B*57:01 [1]) | Linear regression slope (HLA-B*57:01 [1]) | HLA-B*57:01 previous observation by LC-MS/MS, Abacavir treated (HLA-B*57:01 [2]) | HLA-B*57:01 previous observation by LC-MS/MS, Untreated (HLA-B*57:01 [2])
22 | LSSDINVRSW | – | Minimal | -0.0197 | + (+ (< 5% FDR)) | + (+ (< 5% FDR))
23 | TSLKSRVTI [non-labelled HLA-B*57:01 ligand] | Facilitated | Facilitated | 0.0267 | # (# (> 5% FDR)) | + (+ (< 5% FDR))
24 | LSSPVTKSF | minimally impacted by abacavir | Minimal | 0.0147 | + (+ (< 5% FDR)) | + (+ (< 5% FDR))
25 | KVFKLQTSL [non-labelled HLA-B*57:01 ligand] | Dependent | Dependent | 0.0380 | # (# (> 5% FDR)) | –
26 | KSIARVLTV | – | Dependent | 0.0347 | # (# (> 5% FDR)) | –
27 | VTHSVRIGF | – | Inhibited | -0.0410 | + (+ (< 5% FDR)) | + (+ (< 5% FDR))
28 | RVDPDVAQHW | – | Minimal | 0.0110 | + (+ (< 5% FDR)) | + (+ (< 5% FDR))
29 | MTAGVDGHSW | – | Minimal | -0.0056 | + (+ (< 5% FDR)) | + (+ (< 5% FDR))
30 | HSTDRVVLI | – | Dependent | 0.0350 | # (# (> 5% FDR)) | –
31 | HTIQIRQDW [HLA-B*57:01 ligand] | Facilitated | Facilitated | 0.0256 | + (+ (< 5% FDR)) | + (+ (< 5% FDR))
32 | ITKTVVENI [HLA-B*57:01 ligand] | Minimal | Minimal | -0.0036 | + (+ (< 5% FDR)) | + (+ (< 5% FDR))
33 | TSQAGLFRLW | – | Minimal | 0.0067 | + (+ (< 5% FDR)) | + (+ (< 5% FDR))
34 | HSMSDPGVSY | – | Minimal | 0.0044 | + (+ (< 5% FDR)) | + (+ (< 5% FDR))
35 | KTLEGEFSV | – | Dependent | 0.0463 | + (+ (< 5% FDR)) | –
36 | KIADFGWSV | – | Dependent | 0.0283 | + (+ (< 5% FDR)) | –
37 | ATFKGIVRAI [non-labelled HLA-B*57:01 ligand] | Dependent | Dependent | 0.0504 | + (+ (< 5% FDR)) | –
38 | LSQEQLRQW | – | Minimal | 0.0083 | + (+ (< 5% FDR)) | + (+ (< 5% FDR))
39 | IVFPGSTGHI | – | Dependent | 0.0377 | + (+ (< 5% FDR)) | –
40 | VTTDIQVKV | – | Dependent | 0.0428 | + (+ (< 5% FDR)) | + (+ (< 5% FDR))
41 | SAAYLPRMW | – | Minimal | -0.0194 | + (+ (< 5% FDR)) | + (+ (< 5% FDR))

Reference: paper PMC8170132, “Kinetics of Abacavir-Induced Remodelling of the Major Histocompatibility Complex Class I Peptide Repertoire” (Frontiers in Immunology, 2021)
